Experimental data as given in patent US7465824B2, “Process for the production of high purity aromatic carboxylic acids using a benzoic acid and water solvent for oxidation and purification” (BP Corporation North America Inc., priority 2007, dated 2008).

Assay: Solubility of TA in a solvent containing 50% benzoic acid and 50% water at various temperatures
Type: physicochemical
Conditions: solvent 50% benzoic acid and 50% water
Experimental: The solubility of TA in a solvent containing 50% benzoic acid and 50% water was determined at various temperatures and is shown below in Table 1.

What does the source list for `O=C(O)c1ccc(C(=O)O)cc1` [TA, terephthalic acid]?
solubility of TA given in Example 1 (at 455 °F): 10.9%; TA Solubility (Temp 397 °F): 5.04 g TA/100 g Solution; TA Solubility (Temp 436 °F): 8.58 g TA/100 g Solution; TA Solubility (Temp 446 °F): 9.59 g TA/100 g Solution; TA Solubility (Temp 451 °F): 9.77 g TA/100 g Solution; TA Solubility (Temp 455 °F): 10.91 g TA/100 g Solution; TA Solubility (Temp 477 °F): 13.49 g TA/100 g Solution; TA Solubility (Temp 505 °F): 18.71 g TA/100 g Solution
